From PubChem BioAssay (NCI)
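Briefly, cells in 96-well plates were exposed to five compound concentrations for 48 h, and endpoints were estimated by linear interpolation. At the GI50, growth is halved. The concentration for full growth arrest is given as TGI.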

How the values were obtained:
Experiment in all cases: NCI-60 cell line screen, 48 h
SK-MEL-2 melanoma = tested on: SK-MEL-2 melanoma
TK-10 renal = tested on: TK-10 renal
RXF 393 renal = tested on: RXF 393 renal
OVCAR-8 ovarian = tested on: OVCAR-8 ovarian
EKVX NSCLC = tested on: EKVX NSCLC
SF-539 CNS = tested on: SF-539 CNS
HT29 colon = tested on: HT29 colon
OVCAR-4 ovarian = tested on: OVCAR-4 ovarian
NCI-H460 lung = tested on: NCI-H460 lung

Structure (SMILES)	GI50 (SK-MEL-2 melanoma)	TGI (SK-MEL-2 melanoma)	GI50 (TK-10 renal)	TGI (TK-10 renal)	GI50 (RXF 393 renal)	TGI (RXF 393 renal)	GI50 (OVCAR-8 ovarian)	TGI (OVCAR-8 ovarian)	GI50 (EKVX NSCLC)	TGI (EKVX NSCLC)	GI50 (SF-539 CNS)	TGI (SF-539 CNS)	GI50 (HT29 colon)	TGI (HT29 colon)	GI50 (OVCAR-4 ovarian)	TGI (OVCAR-4 ovarian)	GI50 (NCI-H460 lung)	TGI (NCI-H460 lung)
O=C(NN1C(=O)CSC1c1cccc(Cl)c1)C(O)c1ccccc1 (stereo unspecified)	> 100 µM	> 100 µM	> 100 µM	> 100 µM	59.3 µM	> 100 µM	83.5 µM	> 100 µM	64.5 µM	> 100 µM	> 100 µM	> 100 µM	> 100 µM	> 100 µM	66.7 µM	> 100 µM	42.8 µM	> 100 µM
CN/N=C(/c1nc2ccc([N+](=O)[O-])cc2[nH]c1=O)C(O)c1ccc(C(O)/C(=N\NC)c2nc3ccc([N+](=O)[O-])cc3[nH]c2=O)cc1 (stereo unspecified)	–	> 100 µM	–	> 100 µM	–	> 100 µM	–	> 100 µM	–	> 100 µM	–	> 100 µM	–	> 100 µM	–	–	–	> 100 µM
O=C1CCC2(c3ccccc3)Nc3ccccc3N12 (stereo unspecified)	–	> 100 µM	–	> 100 µM	–	> 100 µM	–	> 100 µM	–	> 100 µM	–	> 100 µM	–	> 100 µM	–	> 100 µM	–	> 100 µM
CC1=Nc2ccccc2SC(c2c(Cl)cccc2Cl)C1 (stereo unspecified)	–	–	–	3.89 µM	–	2.69 µM	–	0.588 µM	–	3.82 µM	–	2.72 µM	–	1.57 µM	–	4.56 µM	–	3.26 µM
Clc1ccccc1CN1COc2c(ccc3cccnc23)C1	–	6.63 µM	–	23.2 µM	–	–	–	15.3 µM	–	15.9 µM	–	11.7 µM	–	–	–	14.6 µM	–	20.8 µM
CCCN(CCC)c1ccc(C=O)c(Cl)c1	15 µM	44.3 µM	0.262 µM	1.17 µM	14.2 µM	33.6 µM	28.4 µM	> 100 µM	21.4 µM	> 76.6 µM	23.8 µM	> 65 µM	18.4 µM	50.2 µM	0.78 µM	14.2 µM	2.19 µM	39.3 µM
COc1ccc(-c2c(C#N)c(N)nc(N3CCOCC3)c2C#N)cc1	27.1 µM	> 100 µM	19.6 µM	86.1 µM	16.9 µM	47.2 µM	26 µM	> 100 µM	21.4 µM	> 100 µM	32.1 µM	> 100 µM	26.6 µM	> 100 µM	47 µM	> 100 µM	29.9 µM	> 100 µM
CC(/C=C/C(O)=C1/C(=O)CNC1=O)=C\[C@@H](C)[C@H]1O[C@@]2(C)O[C@H](C(=O)[C@@H]3O[C@@]32C)[C@@H]1C	–	50.1 µM	–	44.2 µM	–	25.3 µM	–	46.4 µM	–	39.2 µM	–	40 µM	–	47 µM	–	–	–	–
CN(C)c1ccc(/C=C(\NC(=O)c2ccccc2)c2nc3ccc4c(c3[nH]2)C(=O)c2ccccc2C4=O)cc1	–	> 100 µM	–	> 100 µM	–	93.8 µM	–	> 100 µM	–	> 100 µM	–	> 100 µM	–	> 100 µM	–	> 100 µM	–	> 100 µM
C#CCN(N=O)C(=O)ON1C(=O)CCC1=O	–	> 100 µM	–	> 100 µM	–	> 100 µM	–	> 100 µM	–	> 100 µM	–	> 100 µM	–	> 100 µM	–	> 100 µM	–	> 100 µM
O=C(c1ccc2ccccc2c1)c1nc2cc(F)ccc2[n+]([O-])c1C(F)(F)F	18.7 µM	35.8 µM	28.5 µM	92.2 µM	14.6 µM	30.8 µM	16.7 µM	32.4 µM	18.2 µM	38 µM	22 µM	48.9 µM	16.3 µM	35.2 µM	18.7 µM	36.8 µM	18.8 µM	38 µM
COc1ccccc1-c1cc(=O)c2cc(C)c(C)c(C(=O)O)c2o1	–	> 100 µM	–	> 100 µM	–	–	–	> 100 µM	–	> 100 µM	–	> 100 µM	–	> 100 µM	–	> 100 µM	–	> 100 µM
OC1=CN=COc2ccccc21	–	> 100 µM	–	> 100 µM	–	> 100 µM	–	> 100 µM	–	> 100 µM	–	> 100 µM	–	> 100 µM	–	> 100 µM	–	> 100 µM
O=C(CC1(O)C(=O)Nc2ccc(F)cc21)c1ccc(C(=O)NCC2CCC3(CC2)OOC2(CCCCC2)OO3)cc1 (stereo unspecified)	5.95 µM	20.7 µM	2.03 µM	4.36 µM	6.19 µM	21.7 µM	6.3 µM	35.8 µM	1.87 µM	3.98 µM	3.64 µM	14.8 µM	11.7 µM	28 µM	7.74 µM	32.5 µM	2.52 µM	6.47 µM
C[N+](C)(C)CC1CCCCC1=O (stereo unspecified)	–	–	–	> 100 µM	–	33.8 µM	–	41.1 µM	–	57.5 µM	–	> 100 µM	–	38.3 µM	–	–	–	> 100 µM
